Experimental data as given in patent EP3092214B1, “NITROSAMINE/NITRITE INHIBITION IN TERTIARY ALKYLAMINE OXIDE COMPOSITIONS” (EOC Surfactants N.V., priority 2014, dated 2015).
Read-outs that look alike come from different tables or passages of the source.

Tests used:
[1] = Synthesis tests of cocamidopropylamine oxide with candidate inhibitors: colour of the final product; type: physicochemical; conditions: additive 0,1% by weight on amido-amine
Protocol: (§1) To a three-neck flask of 1000 ml, demi-water and citric acid were added. The acid was added in order to keep the pH of the reaction mixture below 9. Subsequently, cocamidopropylamine and hydrogen peroxide were added. The reaction mixture was heated to a desired temperature of either 50 °C or 70 °C. Upon reaching the desired reaction temperature, sodium bicarbonate was added. The pH of the reaction mixture is maintained between 7,0 and 7,5. If necessary, NaOH is added.
(§2) In the examples described below, different additives were tested for their ability to inhibit the formation of nitrosamines. Each time, during the reaction, an amount of inhibitor was added which corresponds to 0,1% by weight of the amount of added amido-amine raw material.

[2] = for Content of nitrosamines: cocamidopropylamine oxide synthesis, additive 0,1% by weight on amido-amine; for inhibitory effect on the formation of nitrosamines: result in words, tertiary alkylamine oxide (cocamidopropylamine oxide) synthesis
Protocol: For the measurement, gas chromatography in combination with a thermal energy analyzer (GC-TEA) is used. In measurements using this technique, the so-called apparent total N-nitroso compounds (ATNC) are determined by a chemical denitrosation and detection of the released […] in µg/kg (ppb). This content is also determined by denitrosation of an N-nitrosodiisopropanolamine (NDiPLA) calibration standard.
as §1, §2
The nitrosamine content was determined with the aid of a chemical denitrosation technique and measurement with a thermal energy analyzer. The detection limit of the method used was 50 µg total content of N-nitroso compounds/kg.

Row | Compound | Colour ([1]; Temp 50 °C) [Apha] | Colour ([1]; Temp 70 °C) [Apha] | Content of nitrosamines ([2]; Temp 50 °C) [ppb] | Content of nitrosamines ([2]; Temp 70 °C) [ppb] | inhibitory effect on the formation of nitrosamines [2]
1 | O=P(O)(O)CN(CCN(CP(=O)(O)O)CP(=O)(O)O)CCN(CP(=O)(O)O)CP(=O)(O)O [DTPMP, diethylenetriamine penta(methylene phosphonic acid)] | 50 | 24 | 1637 | 765 | insufficiently able to inhibit the formation of nitrosamines
2 | O=C(O)CN(CCN(CC(=O)O)CC(=O)O)CC(=O)O [EDTA, ethylenediaminetetraacetic acid] | 27 | 37 | 660 | 1550 | insufficiently able to inhibit the formation of nitrosamines
3 | O=C(O)CN(CCN(CC(=O)O)CC(=O)O)CCN(CC(=O)O)CC(=O)O [DTPA Na, diethylene triamine pentaacetic acid] | 27 | – | – | – | –
